The source of these data is patent US20100069441A1, “ANTIMICROBIAL INDOLINE COMPOUNDS FOR TREATMENT OF BACTERIAL INFECTIONS” (priority 2008, published 2010).

In brackets after ≈: the same amount, converted by molar mass. Like-named read-outs stand apart in the source and are kept apart here. Some results are limits rather than exact numbers.

Series [1] deals with methicillin-resistant Staphylococcus aureus (MRSA; from the Massachusetts General Hospital, USA). In words: Antibacterial activity (MIC) against MRSA clinical isolate. The following applies: clinical isolate of MRSA, agar dilution. The format is cell-based. From the text:
Compounds of this invention can have useful activity against a variety of pathogenic microorganisms. The in vitro activity of compounds of this invention can be assessed by standard testing procedures such as the determination of minimum inhibitory concentration (MIC) by agar dilution as described in “Approved Standard. Methods for Dilution Antimicrobial Susceptibility Tests for Bacteria That Grow Aerobically”, 3rd. ed., published 1993 by the National Committee for Clinical Laboratory Standards, Villanova, Pennsylvania, USA. Minimum inhibitory concentration (MIC) refers to the lowest concentration of drug (μg/mL) that inhibits visible growth of the organism. Lower MIC values indicate a higher antibacterial activity. […] The useful activity of compounds of the present invention against a clinical isolate of methicillin-resistant Staphylococcus aureus (MRSA; from the Massachusetts General Hospital, USA) is illustrated by the MIC data of Table 1.

Series [2] concerns human CD34+ bone marrow cells. As to the kind of experiment: Bone marrow CD34+ cell growth inhibition (myelosuppressive potential), luminescence assay. The format is cell-based. As to conditions: normalized IC50 ratio over reference compound of Example 18; incubation 9-10 days; higher ratio = reduced myelosuppression. How it is done:
Myelosuppressive potential (hematopoietic or bone marrow toxicity) was evaluated using human CD34^+ bone marrow cells, generally following methods described by Leach in International Patent Publication No. WO 2006/097828. Thus, an oxazolidinone compound was incubated with fresh human bone marrow cells for 9-10 days at 37° C. in 5% CO2 atmosphere. At end of the incubation period, the bone marrow toxicity was accessed by measuring inhibition (IC50, μg/mL) of CD34^+ cell growth using a luminescence assay. Lower IC50 value indicates a higher myelosuppression potential with enhanced probability of undesired adverse effects in vivo, while a higher IC50 value indicates reduced bone marrow toxicity. For comparison, the data are represented as normalized IC50 ratio indicating the fold of improvement over the reference compound of Example 18, based on IC50 for each compound in the CD34 assay.

For a further series, the system named is S. aureus. In words: In vivo antibacterial efficacy (ED50) in mice infected intraperitoneally. The following applies: Staphylococcus aureus, po. On the procedure:
Determination of in vivo efficacy was performed by inoculating mice intraperitoneally with cultures of infecting organism using Linezolid as control. The compound was dissolved in DMSO with 20% cyclodextrin, diluted with deionized water, and administered orally (p.o.). The mice were dosed 1 hours after infection. Mortality was recorded after 72 hours. The 50% effective dose (ED50, mg/kg) was calculated at the end of the test.

Series [3] has as its target T1, Human monoamine oxidase (MOA) A type enzyme (Homo sapiens, UniProt P21397).
T1 construct: purchased BD Gentest
T1 sequence (P21397 1-527): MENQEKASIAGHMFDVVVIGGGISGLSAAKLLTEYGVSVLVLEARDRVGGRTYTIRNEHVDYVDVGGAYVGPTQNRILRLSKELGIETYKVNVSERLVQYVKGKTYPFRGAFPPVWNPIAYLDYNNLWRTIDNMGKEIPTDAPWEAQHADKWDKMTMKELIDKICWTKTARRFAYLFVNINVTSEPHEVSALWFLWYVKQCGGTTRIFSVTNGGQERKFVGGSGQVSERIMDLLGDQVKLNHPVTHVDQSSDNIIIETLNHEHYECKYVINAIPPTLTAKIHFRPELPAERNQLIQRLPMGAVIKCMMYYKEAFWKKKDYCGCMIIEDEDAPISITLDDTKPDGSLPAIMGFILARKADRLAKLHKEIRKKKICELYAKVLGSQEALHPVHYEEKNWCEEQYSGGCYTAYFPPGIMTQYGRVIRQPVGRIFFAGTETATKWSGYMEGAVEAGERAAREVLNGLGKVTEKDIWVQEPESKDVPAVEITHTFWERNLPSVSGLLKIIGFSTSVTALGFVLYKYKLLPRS
In words: Monoamine oxidase A inhibition (MAO-Glo assay). It counts as biochemical. As to conditions: MAO-Glo kit. On the procedure:
Human monoamine oxidase (MOA) A type enzyme inhibition activity for select compounds was measured using a commercial MAO assay kit MAO-Glo™ from Promega Co. (USA). The assay was performed as described in the company's technical bulletin “MAO-Glo™ Assay”. The protocol involves an incubation of the MAO A enzyme (BD Gentest™) with a luminogenic MAO substrate to produce an enzymatic product which is converted to luciferin by a coupled reaction. The released luciferin undergoes further transformation to generate light that is detected and measured. The amount of the light is directly proportional to the activity of MAO. Percent inhibition at several concentrations is established relative to the uninhibited control rate, and the IC50 (μg/mL) values are calculated. […] The MAO inhibition data for select compound of this invention are illustrated in the Table 3 below.

[4] abbreviates: mice, p.o., dosed 1 hour after infection, mortality recorded after 72 hours, read-out: ED50.

For the molecule `Cn1nnc(-c2ccc(-c3ccc4c(c3)C[C@H]3[C@H](CO)OC(=O)N43)cn2)n1` [Example 1], 0.5 µg/mL (≈ 1.37 µM) was the least that counted as inhibitory in series [1] (MIC). In series [2], the “CD34 IC50 RATIO” value is recorded as 4.6. Also, in the series with S. aureus (setting [4]), the ED50 was found to be 4.2 mg/kg.
As to `Cn1nnnc1-c1ccc(-c2ccc3c(c2)C[C@H]2[C@H](CO)OC(=O)N32)cn1` [Example 2], it took 0.5 µg/mL (≈ 1.37 µM) to inhibit growth in series [1] (MIC). For the same molecule, the “CD34 IC50 RATIO” value in series [2] is on record as 3.3. In the series on S. aureus (setting [4]), the 50% effective dose (ED50) came out at 6.1 mg/kg.
In series [1], `O=C1O[C@@H](CO)[C@@H]2Cc3cc(-c4ccc(-n5cnnn5)nc4)ccc3N12` [Example 3] returned a minimum inhibitory concentration (MIC) of 0.25 µg/mL (≈ 0.714 µM). The 50% effective dose (ED50) in the series on S. aureus (setting [4]) turned out to be 3.3 mg/kg.
In the case of `Cn1nnc(-c2ccc(-c3ccc4c(c3)C[C@H]3[C@H](COP(=O)([O-])[O-])OC(=O)N43)cn2)n1.[Na+].[Na+]` [Example 5], the ED50 in the series on S. aureus (setting [4]) was found to be 5.6 mg/kg.
With `COC(=O)NC[C@@H]1OC(=O)N2c3ccc(-c4ccc(-c5nnn(C)n5)nc4)cc3C[C@@H]12` [Example 7], the half-maximal inhibitory concentration (IC50) in series [3] was more than 237 µM. In addition, the MIC in series [1] was determined as 1 µg/mL (≈ 2.37 µM).
In turn, `CC(=O)NC[C@@H]1OC(=O)N2c3ccc(-c4ccc(-n5cc(C(C)(C)O)nn5)nc4)cc3C[C@@H]12` [Example 12] came in with an MIC in series [1] of 1 µg/mL (≈ 2.23 µM). Further, the “CD34 IC50 RATIO” value in series [2] is on record as 2.5.
Consider `CC(=O)NC[C@@H]1OC(=O)N2c3ccc(-c4ccc(-n5cc(CO)nn5)nc4)cc3C[C@H]12` [Example 13], for which the 50% inhibitory concentration (IC50) in series [3] was more than 238 µM. The MIC in series [1] was 1 µg/mL (≈ 2.38 µM). The “CD34 IC50 RATIO” value in series [2] was 2.5.
The like results for `CC(=O)NC[C@@H]1OC(=O)N2c3ccc(-c4ccc(-c5noc(C)n5)nc4)cc3C[C@@H]12` [Example 14] were, in that order, more than 247 µM, 1 µg/mL (≈ 2.47 µM) and 2.0.
`CC(=O)NC[C@@H]1OC(=O)N2c3ccc(-c4ccc(-n5cc(C)nc5C)nc4)cc3C[C@H]12` [Example 15] displayed an MIC in series [1] of 4 µg/mL (≈ 9.58 µM).
`CC(=O)NC[C@@H]1OC(=O)N2c3ccc(-c4ccc(-n5cncn5)nc4)cc3C[C@H]12` [Example 16]: the IC50 in series [3] is 43 µM. It took 0.5 µg/mL (≈ 1.28 µM) to inhibit growth in series [1] (MIC).
Take `CC(=O)NC[C@@H]1OC(=O)N2c3ccc(-c4ccc(-c5cc(CO)on5)nc4)cc3C[C@H]12` [Example 17]: it took 1 µg/mL (≈ 2.38 µM) to inhibit growth in series [1] (MIC). In addition, the “CD34 IC50 RATIO” value in series [2] amounted to 4.5.
For `CC(=O)NC[C@@H]1OC(=O)N2c3ccc(-c4cccnc4)cc3C[C@H]12` [Example 18, reference compound], the “CD34 IC50 RATIO” value in series [2] came to 1.
Still for that read-out and setting: as for `Cc1cnnn1-c1ccc(-c2ccc3c(c2)C[C@H]2[C@H](CO)OC(=O)N32)cn1` [Example 20], the figure is 14.8.
As for `N#CCn1nnc(-c2ccc(-c3ccc4c(c3)C[C@H]3[C@H](CO)OC(=O)N43)cn2)n1` [Example 21], in series [1], the MIC turned out to be 0.25 µg/mL (≈ 0.642 µM). Besides, in series [2], the “CD34 IC50 RATIO” value was found to be 2.3. Further, the ED50 in the series with S. aureus (setting [4]) was 9.5 mg/kg.
In the case of `Cn1ncc(-c2ccc(-c3ccc4c(c3)C[C@H]3[C@H](CO)OC(=O)N43)cn2)n1` [Example 22], in series [2], the “CD34 IC50 RATIO” value is listed as 8.3.
In the case of `Cc1nnc(-c2ccc(-c3ccc4c(c3)C[C@H]3[C@H](CO)OC(=O)N43)cn2)o1` [Example 23], 0.25 µg/mL (≈ 0.686 µM) was the least that counted as inhibitory in series [1] (MIC). Moreover, the “CD34 IC50 RATIO” value in series [2] stood at 2.5. Also, in the series with S. aureus (setting [4]), the 50% effective dose (ED50) turned out to be 5.3 mg/kg.
On to `N#CCc1cn(-c2ccc(-c3ccc4c(c3)C[C@H]3[C@H](CO)OC(=O)N43)cn2)nn1` [Example 24], for which, in series [1], inhibition of growth (MIC) required 0.25 µg/mL (≈ 0.644 µM). Besides, the “CD34 IC50 RATIO” value in series [2] was found to be 1.6. The 50% effective dose (ED50) in the series on S. aureus (setting [4]) was determined as 9.8 mg/kg.
`Cn1nncc1-c1ccc(-c2ccc3c(c2)C[C@H]2[C@H](CO)OC(=O)N32)cn1` [Example 25] yielded an MIC in series [1] of 0.25 µg/mL (≈ 0.688 µM). In series [2], the “CD34 IC50 RATIO” value was found to be 4.9. Further, the median effective dose (ED50) in the series on S. aureus (setting [4]) stood at 9.6 mg/kg.
`Cn1cc(-c2ccc(-c3ccc4c(c3)C[C@H]3[C@H](CO)OC(=O)N43)cn2)nn1` [Example 26] yielded an MIC in series [1] of 1 µg/mL (≈ 2.75 µM). Also, the “CD34 IC50 RATIO” value in series [2] amounted to 11.4.
`O=C1O[C@@H](CO)[C@@H]2Cc3cc(-c4ccc(-n5cc(CF)nn5)nc4)ccc3N12` [Example 27] came in with a minimal inhibitory concentration (MIC) in series [1] of 0.25 µg/mL (≈ 0.656 µM). Besides, the “CD34 IC50 RATIO” value in series [2] is recorded as 1.6.
The like results for `O=C1OCCN1c1ccc(-c2ccc3c(c2)C[C@H]2[C@H](CO)OC(=O)N32)cn1` [Example 28] were, in that order, 0.25 µg/mL (≈ 0.681 µM) and 2.3.
`Cc1nnn(-c2ccc(-c3ccc4c(c3)C[C@H]3[C@H](CO)OC(=O)N43)cn2)c1C` [Example 29] gave a minimum inhibitory concentration (MIC) in series [1] of 1 µg/mL (≈ 2.65 µM). The “CD34 IC50 RATIO” value in series [2] worked out at 15.5.
Turning to `Cc1cn(-c2ccc(-c3ccc4c(c3)C[C@H]3[C@H](CO)OC(=O)N43)cn2)nn1` [Example 30], the MIC in series [1] is 0.25 µg/mL (≈ 0.688 µM). Also, the “CD34 IC50 RATIO” value in series [2] was found to be 4.1.
On to `Cc1nnc(-c2ccc(-c3ccc4c(c3)C[C@H]3[C@H](COP(=O)([O-])[O-])OC(=O)N43)cn2)o1.[Na+].[Na+]` [Example 32], for which, in the series on S. aureus, it took a dose of 10 mg/kg to reach the 50% effect level (ED50).
On the same count and under the same terms, for `Cn1nncc1-c1ccc(-c2ccc3c(c2)C[C@H]2[C@H](COP(=O)([O-])[O-])OC(=O)N32)cn1.[Na+].[Na+]` [Example 33] the value was 9.1 mg/kg.
Consider `N#CCc1cn(-c2ccc(-c3ccc4c(c3)C[C@H]3[C@H](COP(=O)([O-])[O-])OC(=O)N43)cn2)nn1.[Na+].[Na+]` [Example 39], for which, in the series on S. aureus (setting [4]), the ED50 came to 10 mg/kg.
As for `CC(=O)NC[C@H]1CN(c2ccc(N3CCOCC3)c(F)c2)C(=O)O1` [Linezolid, linezolid, reference compound], half-maximal inhibition in series [3] (IC50) was put at 12.2 µM. Also, the minimum inhibitory concentration (MIC) in series [1] is 2 µg/mL (≈ 5.93 µM).
